Measured values taken from ChEMBL document CHEMBL1909046, “DrugMatrix in vitro pharmacology data”.

What was measured:
Insulin receptor = Insulin receptor (Rattus norvegicus, UniProt P15127); assay type: cell membranes, Wistar, Liver, Membrane; note: in other assays of this panel Not Active means under 50% inhibition at 10 µM
Caspase-1 = biological target: T1, Caspase-1 (Homo sapiens, UniProt P29466); parameters: species or system Escherichia coli;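 note: Caspase-1 enzyme inhibition assay with a peptide substrate; in other assays of this panel Not Active means under 50% inhibition at 10 µM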
T1 sequence (P29466 whole entry): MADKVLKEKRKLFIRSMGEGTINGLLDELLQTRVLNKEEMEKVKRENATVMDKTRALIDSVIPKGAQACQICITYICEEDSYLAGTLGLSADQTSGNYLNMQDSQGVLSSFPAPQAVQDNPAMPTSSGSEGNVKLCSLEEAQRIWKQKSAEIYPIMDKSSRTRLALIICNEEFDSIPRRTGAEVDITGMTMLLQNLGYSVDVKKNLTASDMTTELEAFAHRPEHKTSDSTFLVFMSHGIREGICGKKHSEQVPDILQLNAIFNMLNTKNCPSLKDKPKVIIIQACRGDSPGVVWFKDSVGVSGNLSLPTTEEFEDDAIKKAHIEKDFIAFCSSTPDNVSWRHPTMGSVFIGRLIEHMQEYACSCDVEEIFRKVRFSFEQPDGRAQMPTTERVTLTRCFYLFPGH

Melanocortin receptor 3 = Melanocortin receptor 3 (Homo sapiens, UniProt P41968); assay type: cell membranes, Membrane; conditions: hek293; note: in other assays of this panel Not Active means under 50% inhibition at 10 µM
[1] = biological target: Mitogen-activated protein kinase 1 (Homo sapiens, UniProt P28482); experiment: DRUGMATRIX: Protein Serine/Threonine Kinase, ERK2 enzyme inhibition (substrate: Myelin Basic Protein); parameters: species or system Escherichia coli; conditions: Not Active = under 50% inhibition at 10 µM
Cytochrome P450 2C9 = Cytochrome P450 2C9 (Homo sapiens, UniProt P11712); conditions: bti-tn-5b1-4; note: in other assays of this panel Not Active means under 50% inhibition at 10 µM
[2] = biological target: T2, Muscarinic acetylcholine receptor M4 (Homo sapiens, UniProt P08173); assay type: cell membranes, CHO-K1, Membrane; conditions: cho-k1; note: in other assays of this panel Not Active means under 50% inhibition at 10 µM
T2 sequence (P08173 whole entry): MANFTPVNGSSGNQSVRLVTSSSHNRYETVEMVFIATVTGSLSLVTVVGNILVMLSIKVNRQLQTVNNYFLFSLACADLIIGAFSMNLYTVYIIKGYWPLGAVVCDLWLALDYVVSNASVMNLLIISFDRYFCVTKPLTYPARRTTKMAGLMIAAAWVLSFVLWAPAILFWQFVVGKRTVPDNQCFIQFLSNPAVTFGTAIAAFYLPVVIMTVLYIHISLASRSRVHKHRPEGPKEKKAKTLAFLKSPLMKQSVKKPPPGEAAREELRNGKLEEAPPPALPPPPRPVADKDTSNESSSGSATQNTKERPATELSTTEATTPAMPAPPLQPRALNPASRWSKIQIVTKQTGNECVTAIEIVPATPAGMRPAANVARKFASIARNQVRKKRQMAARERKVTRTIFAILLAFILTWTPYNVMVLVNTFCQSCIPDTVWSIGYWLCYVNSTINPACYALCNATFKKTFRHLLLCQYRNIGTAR

[3] = DRUGMATRIX: GABAA, Chloride Channel, TBOB radioligand binding (ligand: [3H] TBOB); assay type: cell membranes, Rattus norvegicus, Wistar, Cerebral cortex, Membrane; conditions: Not Active = under 50% inhibition at 10 µM
[4] = biological target: T3, C-C chemokine receptor type 4 (Homo sapiens, UniProt P51679); assay type: cell membranes, Membrane; conditions: chem-1; note: in other assays of this panel Not Active means under 50% inhibition at 10 µM
T3 sequence (P51679 whole entry): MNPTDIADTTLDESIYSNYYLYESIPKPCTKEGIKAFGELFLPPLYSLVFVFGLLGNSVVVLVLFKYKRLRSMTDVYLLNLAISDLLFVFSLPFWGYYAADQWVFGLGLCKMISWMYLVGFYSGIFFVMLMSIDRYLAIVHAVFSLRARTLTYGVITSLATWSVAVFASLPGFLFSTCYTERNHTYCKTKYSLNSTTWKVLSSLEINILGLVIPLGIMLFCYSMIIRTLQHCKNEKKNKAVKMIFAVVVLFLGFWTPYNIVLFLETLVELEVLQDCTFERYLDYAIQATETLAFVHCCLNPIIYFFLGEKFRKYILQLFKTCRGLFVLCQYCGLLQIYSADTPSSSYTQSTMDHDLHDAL

[5] = biological target: Epidermal growth factor receptor (Homo sapiens, UniProt P00533); experiment: DRUGMATRIX: Protein Tyrosine Kinase, EGF Receptor enzyme inhibition (substrate: Poly(Glu:Tyr)); assay type: cell-based, Insect cells; conditions: insect cells; Not Active = under 50% inhibition at 10 µM
[6] = biological target: 5-hydroxytryptamine receptor 1B (Rattus norvegicus, UniProt P28564); assay type: cell membranes, Wistar, Cerebral cortex, Membrane; note: in other assays of this panel Not Active means under 50% inhibition at 10 µM
Glucocorticoid receptor = biological target: T4, Glucocorticoid receptor (Homo sapiens, UniProt P04150); conditions: hela s3; note: in other assays of this panel Not Active means under 50% inhibition at 10 µM
T4 sequence (P04150 whole entry): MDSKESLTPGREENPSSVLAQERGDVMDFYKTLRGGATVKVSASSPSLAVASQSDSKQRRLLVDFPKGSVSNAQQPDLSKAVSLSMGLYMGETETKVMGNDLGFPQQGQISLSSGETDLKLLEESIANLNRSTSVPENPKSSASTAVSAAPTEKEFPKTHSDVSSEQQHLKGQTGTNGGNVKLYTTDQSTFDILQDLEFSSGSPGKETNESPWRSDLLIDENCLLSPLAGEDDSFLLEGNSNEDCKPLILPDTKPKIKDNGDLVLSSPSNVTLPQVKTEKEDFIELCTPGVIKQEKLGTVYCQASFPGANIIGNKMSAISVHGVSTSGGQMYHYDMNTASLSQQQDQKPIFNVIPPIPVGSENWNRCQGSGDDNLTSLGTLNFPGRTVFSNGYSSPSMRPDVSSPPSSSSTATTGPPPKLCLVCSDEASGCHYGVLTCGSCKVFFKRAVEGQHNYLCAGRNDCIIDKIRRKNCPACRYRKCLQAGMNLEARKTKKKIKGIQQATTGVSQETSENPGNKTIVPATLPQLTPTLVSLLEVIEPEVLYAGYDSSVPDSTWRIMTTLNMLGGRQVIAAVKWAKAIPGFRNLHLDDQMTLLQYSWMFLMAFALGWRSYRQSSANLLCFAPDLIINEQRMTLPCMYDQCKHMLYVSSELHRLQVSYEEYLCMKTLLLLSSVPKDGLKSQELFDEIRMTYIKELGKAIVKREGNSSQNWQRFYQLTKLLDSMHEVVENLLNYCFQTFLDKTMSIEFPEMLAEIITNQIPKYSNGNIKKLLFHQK

[7] = DRUGMATRIX: Tumor Necrosis Factor (TNF), Non-Selective radioligand binding (ligand: [125I] TNF-alpha); assay type: cell membranes, Membrane; conditions: u-937; Not Active = under 50% inhibition at 10 µM
[8] = biological target: Receptor tyrosine-protein kinase erbB-2 (Homo sapiens, UniProt P04626); experiment: biochemical; assay type: cell-based, Insect cells; conditions: insect cells
[9] = biological target: Kappa-type opioid receptor (Homo sapiens, UniProt P41145); experiment: DRUGMATRIX: Opiate kappa (OP2, KOP) radioligand binding (ligand: [3H] Diprenorphine); assay type: cell membranes, HEK293, Membrane; conditions: hek293; Not Active = under 50% inhibition at 10 µM
Sequence of Kappa-type opioid receptor (P41145 whole entry): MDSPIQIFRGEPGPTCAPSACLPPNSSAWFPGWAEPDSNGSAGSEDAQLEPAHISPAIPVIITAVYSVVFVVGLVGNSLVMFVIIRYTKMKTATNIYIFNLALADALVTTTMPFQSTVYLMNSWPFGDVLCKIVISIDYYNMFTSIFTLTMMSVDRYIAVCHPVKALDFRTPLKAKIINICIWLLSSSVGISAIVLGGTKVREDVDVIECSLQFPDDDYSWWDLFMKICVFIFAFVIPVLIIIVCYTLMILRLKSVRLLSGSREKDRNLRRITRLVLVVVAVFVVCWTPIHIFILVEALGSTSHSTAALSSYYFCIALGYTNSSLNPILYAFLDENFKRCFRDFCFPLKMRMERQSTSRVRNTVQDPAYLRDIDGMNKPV

Sequence of Insulin receptor (P15127 27-759 limits assumed): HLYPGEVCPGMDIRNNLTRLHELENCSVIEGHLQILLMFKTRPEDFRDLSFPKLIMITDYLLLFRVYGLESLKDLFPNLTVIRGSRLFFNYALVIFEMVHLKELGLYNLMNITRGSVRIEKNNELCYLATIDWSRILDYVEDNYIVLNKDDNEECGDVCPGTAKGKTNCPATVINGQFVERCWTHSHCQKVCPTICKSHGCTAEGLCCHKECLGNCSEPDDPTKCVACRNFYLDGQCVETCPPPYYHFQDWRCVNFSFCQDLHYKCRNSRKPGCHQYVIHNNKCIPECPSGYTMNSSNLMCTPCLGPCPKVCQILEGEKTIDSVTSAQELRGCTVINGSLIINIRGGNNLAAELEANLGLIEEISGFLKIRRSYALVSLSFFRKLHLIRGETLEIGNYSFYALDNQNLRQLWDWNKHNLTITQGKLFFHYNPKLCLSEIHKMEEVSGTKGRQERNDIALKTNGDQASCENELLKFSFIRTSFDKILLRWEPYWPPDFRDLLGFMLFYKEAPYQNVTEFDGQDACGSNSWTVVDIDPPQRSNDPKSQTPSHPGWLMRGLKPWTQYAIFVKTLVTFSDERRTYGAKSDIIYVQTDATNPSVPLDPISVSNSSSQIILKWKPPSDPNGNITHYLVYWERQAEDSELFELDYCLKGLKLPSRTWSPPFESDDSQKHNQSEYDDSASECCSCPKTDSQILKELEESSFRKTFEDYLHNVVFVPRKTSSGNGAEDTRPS
Sequence of Insulin receptor (P15127 764-1383 limits assumed): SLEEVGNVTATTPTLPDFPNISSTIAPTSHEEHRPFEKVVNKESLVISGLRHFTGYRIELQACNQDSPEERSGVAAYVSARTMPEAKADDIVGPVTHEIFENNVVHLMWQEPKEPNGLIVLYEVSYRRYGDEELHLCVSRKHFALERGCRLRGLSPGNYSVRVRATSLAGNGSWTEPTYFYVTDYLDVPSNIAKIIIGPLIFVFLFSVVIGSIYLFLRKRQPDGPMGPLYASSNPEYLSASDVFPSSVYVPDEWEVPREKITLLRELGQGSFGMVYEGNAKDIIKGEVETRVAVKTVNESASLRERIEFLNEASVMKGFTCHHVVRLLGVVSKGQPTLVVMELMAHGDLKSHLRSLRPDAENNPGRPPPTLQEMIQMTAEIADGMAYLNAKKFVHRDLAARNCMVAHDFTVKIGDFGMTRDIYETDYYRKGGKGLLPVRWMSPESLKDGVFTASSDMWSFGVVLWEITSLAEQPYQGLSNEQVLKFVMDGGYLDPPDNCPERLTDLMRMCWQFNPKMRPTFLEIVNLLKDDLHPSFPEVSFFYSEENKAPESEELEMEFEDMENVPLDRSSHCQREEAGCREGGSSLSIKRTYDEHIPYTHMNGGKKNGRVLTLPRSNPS
Sequence of Melanocortin receptor 3 (P41968 whole entry): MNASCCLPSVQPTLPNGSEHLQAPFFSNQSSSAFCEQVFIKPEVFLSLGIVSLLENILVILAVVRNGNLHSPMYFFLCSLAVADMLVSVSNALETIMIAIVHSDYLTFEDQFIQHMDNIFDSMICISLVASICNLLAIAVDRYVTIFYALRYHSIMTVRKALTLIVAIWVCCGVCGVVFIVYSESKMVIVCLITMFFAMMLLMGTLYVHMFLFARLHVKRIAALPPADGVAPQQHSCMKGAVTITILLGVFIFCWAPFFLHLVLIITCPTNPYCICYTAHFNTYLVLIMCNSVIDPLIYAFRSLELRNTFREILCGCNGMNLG
Sequence of Receptor tyrosine-protein kinase erbB-2 (P04626 whole entry): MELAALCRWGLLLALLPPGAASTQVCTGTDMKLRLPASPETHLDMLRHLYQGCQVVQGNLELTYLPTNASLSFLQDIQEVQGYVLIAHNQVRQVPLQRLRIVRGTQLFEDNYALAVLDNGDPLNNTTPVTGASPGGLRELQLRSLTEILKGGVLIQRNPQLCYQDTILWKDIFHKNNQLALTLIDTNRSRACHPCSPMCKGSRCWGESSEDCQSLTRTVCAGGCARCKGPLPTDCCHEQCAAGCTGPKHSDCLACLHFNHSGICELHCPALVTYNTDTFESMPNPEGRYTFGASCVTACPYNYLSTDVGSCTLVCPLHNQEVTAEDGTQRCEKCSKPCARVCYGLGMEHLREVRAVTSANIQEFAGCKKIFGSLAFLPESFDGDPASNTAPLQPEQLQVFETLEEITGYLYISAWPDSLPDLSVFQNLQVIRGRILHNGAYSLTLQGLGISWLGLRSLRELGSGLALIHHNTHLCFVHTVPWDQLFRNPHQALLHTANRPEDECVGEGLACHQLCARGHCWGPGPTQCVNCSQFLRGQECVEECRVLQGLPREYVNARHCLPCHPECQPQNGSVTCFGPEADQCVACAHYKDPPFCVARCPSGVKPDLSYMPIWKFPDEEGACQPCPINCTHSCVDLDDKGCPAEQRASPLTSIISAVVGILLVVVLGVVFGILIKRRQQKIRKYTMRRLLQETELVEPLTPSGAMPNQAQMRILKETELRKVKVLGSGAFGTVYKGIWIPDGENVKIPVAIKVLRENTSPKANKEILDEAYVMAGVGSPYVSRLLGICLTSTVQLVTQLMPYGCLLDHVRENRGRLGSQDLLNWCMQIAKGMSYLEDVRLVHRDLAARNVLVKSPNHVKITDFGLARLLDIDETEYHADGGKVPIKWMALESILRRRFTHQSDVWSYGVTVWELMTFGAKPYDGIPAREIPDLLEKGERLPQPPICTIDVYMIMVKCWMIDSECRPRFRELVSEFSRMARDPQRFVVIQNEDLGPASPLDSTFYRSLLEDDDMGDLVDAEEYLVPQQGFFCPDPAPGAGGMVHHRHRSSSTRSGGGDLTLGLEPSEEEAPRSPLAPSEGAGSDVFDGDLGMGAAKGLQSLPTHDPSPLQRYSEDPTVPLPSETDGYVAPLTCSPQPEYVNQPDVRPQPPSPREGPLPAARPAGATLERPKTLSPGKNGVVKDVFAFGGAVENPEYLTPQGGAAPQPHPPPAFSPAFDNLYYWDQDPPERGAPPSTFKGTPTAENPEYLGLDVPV
Sequence of Cytochrome P450 2C9 (P11712 whole entry): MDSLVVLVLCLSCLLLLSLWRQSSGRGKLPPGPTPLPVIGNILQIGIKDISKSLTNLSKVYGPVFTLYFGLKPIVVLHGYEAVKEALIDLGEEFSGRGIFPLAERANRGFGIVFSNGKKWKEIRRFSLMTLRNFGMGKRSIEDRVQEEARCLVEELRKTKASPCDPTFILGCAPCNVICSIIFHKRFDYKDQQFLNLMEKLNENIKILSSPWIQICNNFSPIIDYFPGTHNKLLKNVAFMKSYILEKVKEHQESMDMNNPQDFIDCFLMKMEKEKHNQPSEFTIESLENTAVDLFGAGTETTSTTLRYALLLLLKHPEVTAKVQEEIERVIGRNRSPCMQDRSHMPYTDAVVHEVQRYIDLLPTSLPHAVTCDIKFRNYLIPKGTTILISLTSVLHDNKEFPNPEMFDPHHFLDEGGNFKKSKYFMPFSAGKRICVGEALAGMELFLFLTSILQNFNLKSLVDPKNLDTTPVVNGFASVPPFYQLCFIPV
Sequence of Epidermal growth factor receptor (P00533 whole entry): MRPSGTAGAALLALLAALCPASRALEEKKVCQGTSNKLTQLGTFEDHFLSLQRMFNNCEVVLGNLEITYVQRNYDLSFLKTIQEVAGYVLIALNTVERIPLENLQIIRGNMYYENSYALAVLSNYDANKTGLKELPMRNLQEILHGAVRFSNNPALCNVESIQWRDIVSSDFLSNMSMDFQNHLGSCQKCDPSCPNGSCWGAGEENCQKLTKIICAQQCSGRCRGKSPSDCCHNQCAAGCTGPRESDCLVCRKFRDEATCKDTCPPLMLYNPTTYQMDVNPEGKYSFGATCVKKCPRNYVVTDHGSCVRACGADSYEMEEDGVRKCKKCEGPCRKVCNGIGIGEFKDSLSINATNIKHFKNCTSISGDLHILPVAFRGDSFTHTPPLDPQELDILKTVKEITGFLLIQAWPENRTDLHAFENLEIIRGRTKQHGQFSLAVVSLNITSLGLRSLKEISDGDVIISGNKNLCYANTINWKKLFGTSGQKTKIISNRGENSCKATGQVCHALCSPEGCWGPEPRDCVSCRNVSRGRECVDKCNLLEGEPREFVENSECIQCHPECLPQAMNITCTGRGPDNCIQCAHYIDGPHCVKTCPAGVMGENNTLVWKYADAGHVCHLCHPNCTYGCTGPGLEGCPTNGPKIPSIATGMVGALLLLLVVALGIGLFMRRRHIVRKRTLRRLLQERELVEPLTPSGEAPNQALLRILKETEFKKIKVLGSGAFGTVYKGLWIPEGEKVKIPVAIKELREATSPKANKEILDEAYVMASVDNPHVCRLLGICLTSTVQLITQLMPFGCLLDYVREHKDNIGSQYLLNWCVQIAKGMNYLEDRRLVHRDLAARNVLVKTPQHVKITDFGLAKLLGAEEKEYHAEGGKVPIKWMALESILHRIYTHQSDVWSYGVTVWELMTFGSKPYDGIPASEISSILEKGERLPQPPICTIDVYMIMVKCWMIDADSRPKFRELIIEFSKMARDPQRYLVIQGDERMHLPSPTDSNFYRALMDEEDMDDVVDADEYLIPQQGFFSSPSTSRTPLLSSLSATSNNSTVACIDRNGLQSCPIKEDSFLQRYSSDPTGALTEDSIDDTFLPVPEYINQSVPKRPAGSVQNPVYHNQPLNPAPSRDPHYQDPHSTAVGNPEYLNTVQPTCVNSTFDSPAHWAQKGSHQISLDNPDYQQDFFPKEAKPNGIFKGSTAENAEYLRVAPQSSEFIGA

Brc1ccccc1 [BROMOBENZENE]
Not Active: IC50 (Insulin receptor) | IC50 (Caspase-1) | IC50 (Melanocortin receptor 3) | IC50 [1] | IC50 (Cytochrome P450 2C9) | Ki (Cytochrome P450 2C9) | IC50 [2] | IC50 [3] | Ki [3] | IC50 [4] | IC50 [5] | IC50 [6] | IC50 (Glucocorticoid receptor) | IC50 [7] | Ki [7] | IC50 [8] | IC50 [9]

CC[C@@]1(O)C(=O)OCc2c1cc1n(c2=O)Cc2cc3ccccc3nc2-1 [CAMPTOTHECIN]
Not Active: IC50 (Insulin receptor) | IC50 (Caspase-1) | IC50 (Melanocortin receptor 3) | IC50 [1] | IC50 (Cytochrome P450 2C9) | Ki (Cytochrome P450 2C9) | IC50 [2] | IC50 [3] | Ki [3] | IC50 [4] | IC50 [5] | IC50 [6] | IC50 (Glucocorticoid receptor) | IC50 [7] | Ki [7] | IC50 [8] | IC50 [9]

COCc1c(C(C)C)nc(C(C)C)c(/C=C/[C@@H](O)C[C@@H](O)CC(=O)O)c1-c1ccc(F)cc1 [CERIVASTATIN]
Not Active: IC50 (Insulin receptor) | IC50 (Caspase-1) | IC50 (Melanocortin receptor 3) | IC50 [1] | IC50 (Cytochrome P450 2C9) | Ki (Cytochrome P450 2C9) | IC50 [2] | IC50 [3] | Ki [3] | IC50 [4] | IC50 [5] | IC50 [6] | IC50 (Glucocorticoid receptor) | IC50 [7] | Ki [7] | IC50 [8] | IC50 [9]

CN(C)CCCC1(c2ccc(F)cc2)OCc2cc(C#N)ccc21 (stereo not drawn) [CITALOPRAM]
Not Active: IC50 (Insulin receptor) | IC50 (Caspase-1) | IC50 (Melanocortin receptor 3) | IC50 [1] | IC50 (Cytochrome P450 2C9) | Ki (Cytochrome P450 2C9) | IC50 [2] | IC50 [3] | Ki [3] | IC50 [4] | IC50 [5] | IC50 [6] | IC50 (Glucocorticoid receptor) | IC50 [7] | Ki [7] | IC50 [8] | IC50 [9]

COC(=O)[C@H](c1ccccc1Cl)N1CCc2sccc2C1 [CLOPIDOGREL]
Not Active: IC50 (Insulin receptor) | IC50 (Caspase-1) | IC50 (Melanocortin receptor 3) | IC50 [1] | IC50 (Cytochrome P450 2C9) | Ki (Cytochrome P450 2C9) | IC50 [2] | IC50 [3] | Ki [3] | IC50 [4] | IC50 [5] | IC50 [6] | IC50 (Glucocorticoid receptor) | IC50 [7] | Ki [7] | IC50 [8] | IC50 [9]

Cc1ccccc1N1CCN(CCc2nnc3n2CCCC3)CC1 [DAPIPRAZOLE]
Not Active: IC50 (Insulin receptor) | IC50 (Caspase-1) | IC50 (Melanocortin receptor 3) | IC50 [1] | IC50 (Cytochrome P450 2C9) | Ki (Cytochrome P450 2C9) | IC50 [2] | IC50 [3] | Ki [3] | IC50 [4] | IC50 [5] | IC50 [6] | IC50 (Glucocorticoid receptor) | IC50 [7] | Ki [7] | IC50 [8] | IC50 [9]

CC1=Nc2ccc(Cl)cc2S(=O)(=O)N1 [DIAZOXIDE]
Not Active: IC50 (Insulin receptor) | IC50 (Caspase-1) | IC50 (Melanocortin receptor 3) | IC50 [1] | IC50 (Cytochrome P450 2C9) | Ki (Cytochrome P450 2C9) | IC50 [2] | IC50 [3] | Ki [3] | IC50 [4] | IC50 [5] | IC50 [6] | IC50 (Glucocorticoid receptor) | IC50 [7] | Ki [7] | IC50 [8] | IC50 [9]

COc1ccc([C@@H]2Sc3ccccc3N(CCN(C)C)C(=O)[C@@H]2OC(C)=O)cc1 [DILTIAZEM]
Not Active: IC50 (Insulin receptor) | IC50 (Caspase-1) | IC50 (Melanocortin receptor 3) | IC50 [1] | IC50 (Cytochrome P450 2C9) | Ki (Cytochrome P450 2C9) | IC50 [2] | IC50 [3] | Ki [3] | IC50 [4] | IC50 [5] | IC50 [6] | IC50 (Glucocorticoid receptor) | IC50 [7] | Ki [7] | IC50 [8] | IC50 [9]

CCc1ccc(C(=O)C(C)CN2CCCCC2)cc1 (stereo not drawn) [EPERISONE]
Not Active: IC50 (Insulin receptor) | IC50 (Caspase-1) | IC50 (Melanocortin receptor 3) | IC50 [1] | IC50 (Cytochrome P450 2C9) | Ki (Cytochrome P450 2C9) | IC50 [2] | IC50 [3] | Ki [3] | IC50 [4] | IC50 [5] | IC50 [6] | IC50 (Glucocorticoid receptor) | IC50 [7] | Ki [7] | IC50 [8] | IC50 [9]
